Test results taken from BigSolDB 2.1.

Cc1cc(O)c2c(c1)C(=O)c1cc(O)cc(O)c1C2=O
solubility (mole fraction)
Conditions	273.65 K	278.35 K	289.35 K	298.15 K	307.5 K	313.25 K	318.05 K	323.05 K
in ethanol	0.000485	0.000626	0.000777	0.000936	0.00116	0.00148	0.00168	0.00216
in n-octanol	0.00221	0.00239	0.00266	0.00272	0.00299	0.00347	0.00404	0.00463
